# Reference: ChEMBL document CHEMBL4665820, “Discovery of VU6027459: A First-in-Class Selective and CNS Penetrant mGlu Positive Allosteric Modulator Tool Compound” (ACS Med Chem Lett, 2020)
# Key:
# [1] = target: T1, Metabotropic glutamate receptor 7 (Rattus norvegicus, UniProt P35400); test: Positive allosteric modulation of rat mGlu7 receptor expressed in HEK293 cells co-expressing Gai5 assessed as potentiation of L-AP4-induced calcium mobilization preincubated for 140 secs and treated with EC20 L-AP4 for 125 secs and followed by subsequent addition of EC80 L-AP4 by Fluo-4-AM dye based fluorescence assay; assay type: functional, cell-based; details: read-out: EC50
# [2] = Hepatic intrinsic clearance in rat liver microsomes at 1 uM preincubated for 5 mins followed by NADPH addition and measured up to 45 mins by LC-MS/MS analysis; assay type: ADME, Microsome; details: read-out: CLH
# [3] = Fraction unbound in mouse plasma at 5 uM incubated for 4 hrs by equilibrium dialysis based LC-MS/MS analysis; assay type: ADME, cell-free
# [4] = Unbound plasma to brain permeability coefficient, Kp of the compound in Sprague-Dawley rat at 0.2 mg/kg, iv measured after 0.25 hrs by LC-MS/MS analysis; assay type: ADME, organism-based; details: read-out: K(p,uu,brain)
# [5] = Fraction unbound in mouse brain at 5 uM incubated for 6 hrs by equilibrium dialysis based LC-MS/MS analysis; assay type: ADME, tissue-based
# [6] = target: Metabotropic glutamate receptor 7 (Rattus norvegicus) (UniProt P35400); test: Positive allosteric modulation of rat mGlu7 expressed in HEK293 cells co- expressing GIRK assessed as potentiation of L-AP4-induced thallium flux incubated for 140 sec by FluoZin2-AM dye based fluorescence analysis relative to maximal induction of L-AP4; assay type: cell-based; details: filed as positive allosteric modulator
# [7] = target: Sodium-dependent dopamine transporter (Homo sapiens, UniProt Q01959); test: Displacement of […] from recombinant human Dopamine transporter after 120 mins by scintillation counting analysis; assay type: ADME
# [8] = Plasma to brain permeability coefficient, Kp of the compound in Sprague-Dawley rat at 0.2 mg/kg, iv measured after 0.25 hrs by LC-MS/MS analysis; assay type: ADME, organism-based
# [9] = Fraction unbound in rat plasma at 5 uM incubated for 4 hrs by equilibrium dialysis based LC-MS/MS analysis; assay type: ADME, cell-free
# [10] = target: T1, Metabotropic glutamate receptor 7; test: Positive allosteric modulation of rat mGlu7 expressed in HEK293 cells co- expressing GIRK assessed as potentiation of L-AP4-induced thallium flux incubated for 140 sec by FluoZin2-AM dye based fluorescence analysis; assay type: cell-based
# [11] = Hepatic intrinsic clearance in mouse liver microsomes at 1 uM preincubated for 5 mins followed by NADPH addition and measured up to 45 mins by LC-MS/MS analysis; assay type: ADME, Microsome; details: read-out: CLH
# [12] = target: Metabotropic glutamate receptor 7 (Rattus norvegicus) (UniProt P35400); test: Positive allosteric modulation of rat mGlu7 receptor expressed in HEK293 cells co-expressing Gai5 assessed as potentiation of L-AP4-induced calcium mobilization preincubated for 140 secs and treated with EC20 L-AP4 for 125 secs and followed by subsequent addition of EC80 L-AP4 by Fluo-4-AM dye based fluorescence assay relative to maximal induction of L-AP4; assay type: functional, cell-based; details: filed as positive allosteric modulator, time 140.0 sec
# [13] = Fraction unbound in rat brain at 5 uM incubated for 6 hrs by equilibrium dialysis based LC-MS/MS analysis; assay type: ADME, tissue-based
# [14] = Unbound plasma to brain permeability coefficient, Kp of the compound in rat; assay type: ADME, cell-free; details: read-out: K(p,uu,brain)
# [15] = Plasma to brain permeability coefficient, Kp of the compound in rat; assay type: ADME, cell-free
# [16] = target: Metabotropic glutamate receptor 1 (Homo sapiens, UniProt Q13255); test: Negative allosteric modulation of mGlu1 receptor (unknown origin)
# [17] = target: Metabotropic glutamate receptor 4 (Homo sapiens, UniProt Q14833); test: Negative allosteric modulation of mGlu4 receptor (unknown origin)
# [18] = target: Metabotropic glutamate receptor 5 (Homo sapiens, UniProt P41594); test: Negative allosteric modulation of mGlu5 receptor (unknown origin)
# [19] = target: Metabotropic glutamate receptor 2 (Homo sapiens, UniProt Q14416); test: Negative allosteric modulation of mGlu2 receptor (unknown origin)
# [20] = target: Metabotropic glutamate receptor 3 (Homo sapiens, UniProt Q14832); test: Negative allosteric modulation of mGlu3 receptor (unknown origin)
# [21] = target: Metabotropic glutamate receptor 8 (Homo sapiens, UniProt O00222); test: Negative allosteric modulation of mGlu8 receptor (unknown origin)
# Chain of Metabotropic glutamate receptor 8 (O00222 whole entry): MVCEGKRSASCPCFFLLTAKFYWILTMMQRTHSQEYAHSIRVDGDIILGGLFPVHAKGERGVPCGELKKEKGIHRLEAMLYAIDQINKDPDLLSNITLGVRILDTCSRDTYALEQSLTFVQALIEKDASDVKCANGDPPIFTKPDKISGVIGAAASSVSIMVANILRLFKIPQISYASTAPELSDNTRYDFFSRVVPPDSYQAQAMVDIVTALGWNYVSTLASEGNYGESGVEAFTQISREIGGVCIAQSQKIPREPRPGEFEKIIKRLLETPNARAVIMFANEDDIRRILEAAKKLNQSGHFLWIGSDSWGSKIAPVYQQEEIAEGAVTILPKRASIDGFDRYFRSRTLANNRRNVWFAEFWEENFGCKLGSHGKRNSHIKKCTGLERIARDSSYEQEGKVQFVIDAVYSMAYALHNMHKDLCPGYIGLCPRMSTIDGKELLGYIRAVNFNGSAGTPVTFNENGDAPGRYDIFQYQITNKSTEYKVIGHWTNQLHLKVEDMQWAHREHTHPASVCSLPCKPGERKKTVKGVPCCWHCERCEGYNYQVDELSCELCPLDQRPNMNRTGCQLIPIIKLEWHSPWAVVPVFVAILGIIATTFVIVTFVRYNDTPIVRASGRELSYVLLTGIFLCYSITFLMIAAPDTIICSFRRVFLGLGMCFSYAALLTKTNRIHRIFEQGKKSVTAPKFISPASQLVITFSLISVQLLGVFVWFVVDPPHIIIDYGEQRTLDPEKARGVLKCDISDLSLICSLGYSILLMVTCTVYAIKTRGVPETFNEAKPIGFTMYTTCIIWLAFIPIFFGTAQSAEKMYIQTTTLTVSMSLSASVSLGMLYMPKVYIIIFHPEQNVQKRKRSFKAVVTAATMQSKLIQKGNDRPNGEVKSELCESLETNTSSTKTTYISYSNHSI
# Chain of Sodium-dependent dopamine transporter (Q01959 whole entry): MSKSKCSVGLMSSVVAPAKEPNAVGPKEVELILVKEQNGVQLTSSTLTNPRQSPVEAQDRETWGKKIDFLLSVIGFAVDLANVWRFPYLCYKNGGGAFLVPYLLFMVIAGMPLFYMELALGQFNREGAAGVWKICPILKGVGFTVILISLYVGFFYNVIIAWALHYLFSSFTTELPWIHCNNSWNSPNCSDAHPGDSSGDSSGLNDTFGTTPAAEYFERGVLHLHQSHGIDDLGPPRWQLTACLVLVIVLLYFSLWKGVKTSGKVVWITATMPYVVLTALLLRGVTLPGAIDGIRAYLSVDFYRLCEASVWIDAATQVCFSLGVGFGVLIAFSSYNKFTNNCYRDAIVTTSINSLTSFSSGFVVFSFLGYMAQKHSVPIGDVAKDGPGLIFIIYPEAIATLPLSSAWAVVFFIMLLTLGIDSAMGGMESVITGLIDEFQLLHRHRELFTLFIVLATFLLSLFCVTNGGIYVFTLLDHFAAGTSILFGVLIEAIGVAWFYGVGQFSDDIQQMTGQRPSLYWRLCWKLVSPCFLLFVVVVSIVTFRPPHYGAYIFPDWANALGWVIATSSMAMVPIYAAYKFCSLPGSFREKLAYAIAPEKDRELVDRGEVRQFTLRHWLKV
# Chain of Metabotropic glutamate receptor 7 (Rattus norvegicus) (P35400 whole entry): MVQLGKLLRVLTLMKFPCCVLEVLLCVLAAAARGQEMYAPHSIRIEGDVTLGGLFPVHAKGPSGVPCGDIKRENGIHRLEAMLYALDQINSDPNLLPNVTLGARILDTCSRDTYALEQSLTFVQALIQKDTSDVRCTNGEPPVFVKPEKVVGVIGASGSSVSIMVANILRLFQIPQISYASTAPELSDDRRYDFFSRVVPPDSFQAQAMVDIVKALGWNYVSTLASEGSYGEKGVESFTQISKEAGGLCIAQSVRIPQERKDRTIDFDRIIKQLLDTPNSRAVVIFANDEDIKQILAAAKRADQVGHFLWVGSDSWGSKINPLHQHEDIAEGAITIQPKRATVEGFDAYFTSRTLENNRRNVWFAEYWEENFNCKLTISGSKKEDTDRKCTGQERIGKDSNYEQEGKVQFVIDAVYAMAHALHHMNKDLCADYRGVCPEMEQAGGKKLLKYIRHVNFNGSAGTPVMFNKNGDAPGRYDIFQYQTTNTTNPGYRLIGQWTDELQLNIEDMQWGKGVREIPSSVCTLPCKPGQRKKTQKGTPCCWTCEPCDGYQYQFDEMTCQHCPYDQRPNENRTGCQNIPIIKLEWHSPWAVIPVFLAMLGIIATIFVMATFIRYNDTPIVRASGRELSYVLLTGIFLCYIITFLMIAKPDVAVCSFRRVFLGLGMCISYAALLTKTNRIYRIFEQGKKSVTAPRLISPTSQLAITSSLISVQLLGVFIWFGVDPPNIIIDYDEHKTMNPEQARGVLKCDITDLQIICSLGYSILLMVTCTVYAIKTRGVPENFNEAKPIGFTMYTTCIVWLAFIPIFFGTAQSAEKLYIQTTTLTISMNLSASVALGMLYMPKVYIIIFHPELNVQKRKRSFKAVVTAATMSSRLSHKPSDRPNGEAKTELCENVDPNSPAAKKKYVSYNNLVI
# T1 sequence (P35400 whole entry): as above
# Chain of Metabotropic glutamate receptor 3 (Q14832 whole entry): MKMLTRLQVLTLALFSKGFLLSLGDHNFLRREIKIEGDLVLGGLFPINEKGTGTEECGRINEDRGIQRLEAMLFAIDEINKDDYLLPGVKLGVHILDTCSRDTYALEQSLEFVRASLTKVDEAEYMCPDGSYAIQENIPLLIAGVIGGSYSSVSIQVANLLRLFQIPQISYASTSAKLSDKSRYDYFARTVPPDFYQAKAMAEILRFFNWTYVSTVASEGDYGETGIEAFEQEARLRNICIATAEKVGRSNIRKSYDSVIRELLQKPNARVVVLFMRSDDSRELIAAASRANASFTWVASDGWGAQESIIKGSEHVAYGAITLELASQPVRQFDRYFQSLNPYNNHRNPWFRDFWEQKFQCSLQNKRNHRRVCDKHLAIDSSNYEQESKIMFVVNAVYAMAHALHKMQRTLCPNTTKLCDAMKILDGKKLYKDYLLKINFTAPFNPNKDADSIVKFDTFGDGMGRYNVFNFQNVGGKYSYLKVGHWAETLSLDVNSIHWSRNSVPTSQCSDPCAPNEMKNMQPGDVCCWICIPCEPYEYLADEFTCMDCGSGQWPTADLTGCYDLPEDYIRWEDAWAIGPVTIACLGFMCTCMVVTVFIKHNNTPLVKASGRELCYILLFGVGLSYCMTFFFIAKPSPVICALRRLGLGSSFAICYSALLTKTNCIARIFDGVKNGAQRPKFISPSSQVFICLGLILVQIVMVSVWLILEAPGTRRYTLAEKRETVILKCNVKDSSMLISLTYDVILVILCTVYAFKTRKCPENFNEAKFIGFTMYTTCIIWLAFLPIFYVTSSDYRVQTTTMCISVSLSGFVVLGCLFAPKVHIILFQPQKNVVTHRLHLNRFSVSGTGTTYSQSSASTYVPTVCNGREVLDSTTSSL
# Chain of Metabotropic glutamate receptor 2 (Q14416 whole entry): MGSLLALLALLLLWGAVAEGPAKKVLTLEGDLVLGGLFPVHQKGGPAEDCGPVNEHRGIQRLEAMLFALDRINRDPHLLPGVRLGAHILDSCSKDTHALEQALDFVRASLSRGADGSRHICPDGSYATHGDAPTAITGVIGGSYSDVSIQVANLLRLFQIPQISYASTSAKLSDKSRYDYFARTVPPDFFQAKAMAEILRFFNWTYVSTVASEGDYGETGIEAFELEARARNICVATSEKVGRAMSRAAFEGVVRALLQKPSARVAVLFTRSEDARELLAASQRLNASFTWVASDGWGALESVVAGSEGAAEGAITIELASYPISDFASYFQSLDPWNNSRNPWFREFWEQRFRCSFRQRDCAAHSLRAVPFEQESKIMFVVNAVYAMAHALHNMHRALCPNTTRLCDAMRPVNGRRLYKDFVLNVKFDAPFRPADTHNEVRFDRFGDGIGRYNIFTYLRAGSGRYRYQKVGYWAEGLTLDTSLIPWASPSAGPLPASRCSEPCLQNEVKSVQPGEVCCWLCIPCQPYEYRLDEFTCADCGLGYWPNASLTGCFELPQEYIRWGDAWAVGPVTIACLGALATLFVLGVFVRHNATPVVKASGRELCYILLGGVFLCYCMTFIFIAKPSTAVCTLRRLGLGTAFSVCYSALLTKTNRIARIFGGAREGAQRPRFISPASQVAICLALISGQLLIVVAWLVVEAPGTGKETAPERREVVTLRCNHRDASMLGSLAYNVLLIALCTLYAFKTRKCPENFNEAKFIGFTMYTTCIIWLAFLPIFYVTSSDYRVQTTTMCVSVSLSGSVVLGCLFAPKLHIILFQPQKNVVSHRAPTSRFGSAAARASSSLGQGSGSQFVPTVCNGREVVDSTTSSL
EC50 [1],Activity [12],further results,Compound
1900 nM,–,–,"N#Cc1cnc2c(OCC3CCOC3)cccc2c1N1CCN(c2ccccc2F)CC1 (single isomer, unassigned; (+)) [listing 1 of 2 here]"
1300 nM,72%,"CLint scaled at 1 µM [2]: 58.6 mL/min/kg; fraction unbound at 4 h, 5 µM [3]: 0.01; Kp uu at 0.25 h [4]: 1.24; fraction unbound at 6 h, 5 µM [5]: 0.002; Activity [6]: 29.5%; Ki [7]: > 10000 nM; Kp at 0.25 h [8]: 6.84; fraction unbound at 4 h, 5 µM [9]: 0.01; EC50 [10]: 710 nM; CLint scaled at 1 µM [11]: 76.2 mL/min/kg; fraction unbound at 6 h, 5 µM [13]: 0.002",N#Cc1cnc2c(N3CCOCC3)cccc2c1N1CCN(c2ccccc2F)CC1
> 10000 nM,22%,–,N#Cc1cnc2c(-n3cccn3)cccc2c1N1CCN(c2ccccc2F)CC1
510 nM,71%,–,N#Cc1cnc2c(OC3CCOC3)cc(F)cc2c1N1CCN(c2ccccc2F)CC1 (centres undefined)
1100 nM,62%,IC50 [7]: 2200 nM,COc1c(F)c(F)cc2c(N3CCN(c4ccccc4F)CC3)c(C#N)cnc12
–,88%,–,N#Cc1cnc2c(OCC3CCOC3)cccc2c1N1CCN(c2ccccc2F)CC1 (racemic) [listing 1 of 2 here]
1300 nM,–,–,N#Cc1cnc2c(OCC3CCOC3)cccc2c1N1CCN(c2ccccc2F)CC1 (stereo in doubt; (-)-20f) [listing 1 of 2 here]
> 10000 nM,35%,IC50 [7]: 4000 nM,COc1ccc(F)c2c(N3CCN(c4ccccc4F)CC3)c(C#N)cnc12
> 10000 nM,22%,–,N#Cc1cnc2c(N3CCCC3)cccc2c1N1CCN(c2ccccc2F)CC1
7100 nM,84%,–,CC1CN(c2cccc3c(N4CCN(c5ccccc5F)CC4)c(C#N)cnc23)CCO1 (centres undefined)
1300 nM,–,–,N#Cc1cnc2c(OCC3CCOC3)cccc2c1N1CCN(c2ccccc2F)CC1 (racemic) [listing 2 of 2 here]
–,89%,–,N#Cc1cnc2c(OCC3CCOC3)cccc2c1N1CCN(c2ccccc2F)CC1 (stereo in doubt; (-)-20f) [listing 2 of 2 here]
1250 nM,67%,–,CC(C)Oc1cccc2c(N3CCN(c4ccccc4F)CC3)c(C#N)cnc12
650 nM,76%,–,N#Cc1cnc2c(OCC3CCOC3)cc(F)cc2c1N1CCN(c2ccccc2F)CC1 (centres undefined)
–,77%,–,"N#Cc1cnc2c(OCC3CCOC3)cccc2c1N1CCN(c2ccccc2F)CC1 (single isomer, unassigned; (+)) [listing 2 of 2 here]"
1800 nM,67%,–,N#Cc1cnc2c(OC3CCC3)cccc2c1N1CCN(c2ccccc2F)CC1
> 10000 nM,68%,–,N#Cc1cnc2c(OC(F)F)cccc2c1N1CCN(c2ccccc2F)CC1
> 10000 nM,23%,–,N#Cc1cnc2c(-n3cncn3)cccc2c1N1CCN(c2ccccc2F)CC1

EC50 [1],Activity [12],further results,Compound
1100 nM,–,–,"N#Cc1cnc2c(OC3CCOC3)cccc2c1N1CCN(c2ccccc2F)CC1 (single isomer, unassigned; (-)) [listing 1 of 2 here]"
3800 nM,98%,–,N#Cc1cnc2c(OC(F)F)cc(F)cc2c1N1CCN(c2ccccc2F)CC1
–,85%,–,"N#Cc1cnc2c(OC3CCOC3)cccc2c1N1CCN(c2ccccc2F)CC1 (single isomer, unassigned; (+)) [listing 1 of 2 here]"
1100 nM,–,–,"N#Cc1cnc2c(OC3CCOC3)cccc2c1N1CCN(c2ccccc2F)CC1 (single isomer, unassigned; (+)) [listing 2 of 2 here]"
> 10000 nM,22%,–,N#Cc1cnc2c(N3CCC(F)(F)CC3)cccc2c1N1CCN(c2ccccc2F)CC1
1800 nM,53%,IC50 [7]: 3000 nM,COc1c(F)ccc2c(N3CCN(c4ccccc4F)CC3)c(C#N)cnc12
> 10000 nM,90%,–,N#Cc1cnc2c(O)cccc2c1N1CCN(c2ccccc2F)CC1
6700 nM,81%,–,N#Cc1cnc2c(-n3ccnc3)cccc2c1N1CCN(c2ccccc2F)CC1
> 10000 nM,90%,–,N#Cc1cnc2c(O)cc(F)cc2c1N1CCN(c2ccccc2F)CC1
> 10000 nM,24%,–,N#Cc1cnc2c(N3CCCCC3)cccc2c1N1CCN(c2ccccc2F)CC1
1300 nM,–,"CLint scaled at 1 µM [2]: 54 mL/min/kg; fraction unbound at 4 h, 5 µM [3]: 0.02; Kp uu at 0.25 h [4]: 0.79; fraction unbound at 6 h, 5 µM [5]: 0.01; Ki [7]: > 10000 nM; Kp at 0.25 h [8]: 4.36; fraction unbound at 4 h, 5 µM [9]: 0.03; EC50 [10]: 1000 nM; CLint scaled at 1 µM [11]: 75.8 mL/min/kg; fraction unbound at 6 h, 5 µM [13]: 0.006",N#Cc1cnc2c(OC3CCOC3)cccc2c1N1CCN(c2ccccc2F)CC1 (racemic) [listing 1 of 2 here]
690 nM,82%,"CLint scaled at 1 µM [2]: 50.7 mL/min/kg; fraction unbound at 4 h, 5 µM [3]: 0.004; Kp uu at 0.25 h [4]: 1; fraction unbound at 6 h, 5 µM [5]: 0.001; Activity [6]: 54.5%; Ki [7]: > 10000 nM; Kp at 0.25 h [8]: 4.99; fraction unbound at 4 h, 5 µM [9]: 0.005; EC50 [10]: 750 nM; CLint scaled at 1 µM [11]: 76.2 mL/min/kg; fraction unbound at 6 h, 5 µM [13]: 0.001",CC(C)Oc1cc(F)cc2c(N3CCN(c4ccccc4F)CC3)c(C#N)cnc12
> 10000 nM,23%,–,N#Cc1cnc2c(OC3CCC3)cc(F)cc2c1N1CCN(c2ccccc2F)CC1
1500 nM,–,–,[2H]C([2H])([2H])Oc1cccc2c(N3CCN(c4ccccc4F)CC3)c(C#N)cnc12
–,74%,Activity [6]: 62.2%,N#Cc1cnc2c(OC3CCOC3)cccc2c1N1CCN(c2ccccc2F)CC1 (racemic) [listing 2 of 2 here]
–,–,Kp uu [14]: 0.96; Kp [15]: 4.7; IC50 [16]: > 30000 nM; IC50 [17]: > 30000 nM; IC50 [18]: > 30000 nM; IC50 [19]: > 30000 nM; IC50 [20]: > 30000 nM; IC50 [21]: > 30000 nM,CCOC(=O)c1cnc2c(OC)cccc2c1N1CCN(c2ccccc2F)CC1
–,70%,–,"N#Cc1cnc2c(OC3CCOC3)cccc2c1N1CCN(c2ccccc2F)CC1 (single isomer, unassigned; (-)) [listing 2 of 2 here]"
